Laboratory results as given in paper PMC8869358, “High-Throughput Chemical Screening and Structure-Based Models to Predict hERG Inhibition” (Biology, 2022).
Counter-ions that a name gives are not always drawn.

How the values were obtained:
hERG [1] = molecular target: T1, hERG (Homo sapiens, UniProt Q12809); test: Tox21 qHTS FluxOR thallium flux assay in hERG-U2OS cells; settings: for activity outcome for hERG inhibition in the assay: hERG-U2OS cells, result in words
Protocol: The hERG-U2OS cell line was purchased from Codex BioSolution, Inc. (Gaithersburg, MD, USA). All the cell culture reagents were obtained from Invitrogen (Life Technologies, Madison, WI, USA). The hERG-U2OS cells were cultured in DMEM with Glutamax containing 10% fetal bovine serum (FBS), 1% of Non-Essential AA (NEAA), 50 U/mL penicillin, 50 μg/mL streptomycin, and 1 µg/mL puromycin. The cells were maintained at 37 °C under a humidified atmosphere and 5% CO2.
A FluxORTM thallium flux assay was performed in hERG-U2OS cells with stable hERG expression, as previously described. In this assay, thallium ions are used as surrogates for K^+ ions to monitor the activity of the hERG K^+ channel. […] The hERG-U2OS cells suspended in culture medium were dispensed at 1000 cells/well/3μL into 1536-well, black wall/clear-bottom plates using a Multidrop Combi dispenser (Thermo Fisher, Waltham, MA, USA). After the assay plates were incubated at 37 °C overnight, 3 μL of Loading Buffer provided from FluxOR II Potassium Ion Channel Assay Kit (Life Technologies, Carlsbad, CA, USA) was added to each assay well. The assay plates were then incubated at room temperature in the dark for 1 h, followed by the addition of 23 nL of compound, dissolved in DMSO, DMSO only, or positive control, to the assay plate. Each compound was tested at 15 concentrations in three independent runs.
Multiple criteria were used to select each small molecule, including properties allowing for high-throughput screens (HTS) (molecular weight, volatility, solubility, logP), commercial availability, possible and definite environmental hazards, or exposure concerns, and cost. A diverse group of 88 compounds was selected to be used as an internal control and plated in duplicate on each library plate to perform reproducibility analysis as well as to determine positional plate effects. Each compound in the Tox21 10K compound library was subjected to analytical chemistry quality control (QC), which provides information on the purity and identity of each sample. […] The compounds were serially diluted in Dimethylsulfoxide (DMSO) to 15 concentrations in 1536-well plates, covering a concentration range of up to four orders of magnitude.
Many of these chemicals were sourced independently by NTP/EPA/NCATS from different vendors or the same vendor but different batches; these chemicals have been tested in replicates. Compound concentration-response data analysis was performed as previously described. […] The dataset was then corrected using the DMSO-only compound plates at the beginning and end of the compound plate stack by applying an in-house pattern correction algorithm. The half-maximum inhibition values (IC50) for each compound and maximum response (efficacy) values were obtained by fitting the concentration-response curves of each compound to a four-parameter Hill equation [24]. […] To identify chemicals with the potential to inhibit the hERG channel, we selected only antagonist chemicals with curve rank −5 to −9.

hERG [2] = molecular target: T1, hERG; test: cell-based; settings: (-LOG10(IC50), µM)
[3] = (-LOG10(IC50), µM), Supplementary File S2, Tox21 chemical library

T1 sequence (Q12809 whole entry): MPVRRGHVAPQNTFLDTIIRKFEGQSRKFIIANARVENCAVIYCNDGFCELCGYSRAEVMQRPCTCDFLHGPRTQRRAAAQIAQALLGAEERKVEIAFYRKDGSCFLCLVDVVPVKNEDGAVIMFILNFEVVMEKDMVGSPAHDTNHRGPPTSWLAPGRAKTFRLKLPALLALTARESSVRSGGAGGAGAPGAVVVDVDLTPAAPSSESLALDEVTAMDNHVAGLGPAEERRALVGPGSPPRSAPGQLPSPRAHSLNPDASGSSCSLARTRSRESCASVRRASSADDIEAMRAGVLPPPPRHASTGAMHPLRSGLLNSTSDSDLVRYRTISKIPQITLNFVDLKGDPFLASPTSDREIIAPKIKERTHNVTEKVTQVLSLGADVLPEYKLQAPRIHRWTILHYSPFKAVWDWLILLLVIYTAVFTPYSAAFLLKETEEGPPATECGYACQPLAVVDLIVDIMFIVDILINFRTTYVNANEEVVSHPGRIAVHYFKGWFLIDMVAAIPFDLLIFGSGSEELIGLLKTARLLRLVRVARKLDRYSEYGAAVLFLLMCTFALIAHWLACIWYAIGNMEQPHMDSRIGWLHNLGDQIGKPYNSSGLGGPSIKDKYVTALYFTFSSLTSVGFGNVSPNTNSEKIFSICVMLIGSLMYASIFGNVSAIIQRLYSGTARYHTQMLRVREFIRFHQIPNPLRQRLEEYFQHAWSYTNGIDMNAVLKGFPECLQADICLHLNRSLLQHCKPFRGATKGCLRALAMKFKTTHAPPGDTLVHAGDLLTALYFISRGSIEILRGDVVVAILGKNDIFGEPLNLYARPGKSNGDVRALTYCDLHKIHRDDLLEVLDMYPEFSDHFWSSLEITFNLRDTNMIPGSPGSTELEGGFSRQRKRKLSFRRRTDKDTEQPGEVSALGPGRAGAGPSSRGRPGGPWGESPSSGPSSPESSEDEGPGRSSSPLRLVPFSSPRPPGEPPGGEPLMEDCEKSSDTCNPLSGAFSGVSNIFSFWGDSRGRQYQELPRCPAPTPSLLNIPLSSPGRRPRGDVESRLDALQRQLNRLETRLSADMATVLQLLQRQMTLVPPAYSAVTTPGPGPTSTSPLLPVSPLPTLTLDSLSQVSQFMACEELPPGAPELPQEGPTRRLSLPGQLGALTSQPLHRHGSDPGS

Row | Compound | IC50 (hERG [2]) | also measured
1 | CCNC(=O)N1CCN(CCCC(c2ccc(F)cc2)c2ccc(F)cc2)CC1 [Amperozide hydrochloride] | – | IC50 (hERG [1]; [3]): 0.0916 µM
2 | CC(C)NCC(O)c1ccc(NS(C)(=O)=O)cc1 (stereo not drawn) [Sotalol] | – | activity outcome for hERG inhibition in the assay (hERG [1]; thallium flux, qHTS): active
3 | O=C1NCN(c2ccccc2)C12CCN(CCCC(c1ccc(F)cc1)c1ccc(F)cc1)CC2 [Fluspirilene] | – | activity outcome for hERG inhibition in the assay (hERG [1]; thallium flux, qHTS): most active
4 | OC(CN1CCC(Cc2ccc(F)cc2)CC1)c1ccc(Cl)cc1 (stereo not drawn) [Eliprodil] | – | IC50 (hERG [1]; [3]): 0.0916 µM; IC50 (hERG [1]; IC50, hERG-U2OS cells, thallium flux, qHTS, 15 concentrations, three runs): 0.09 µM; activity outcome for hERG inhibition in the assay (hERG [1]; thallium flux, qHTS): most active
5 | CCCCCCn1cc[n+](C)c1 [1-Hexyl-3-methylimidazolium tetrafluoroborate] | 60.6 µM | –
6 | CN1[C@@H]2CC[C@H]1C[C@@H](NC(=O)n1c(=O)[nH]c3ccccc31)C2 [Itasetron] | 21.3 µM | –
7 | CCOC(=O)[C@@H](C)Oc1ccc(Oc2nc3ccc(Cl)cc3o2)cc1 [Fenoxaprop-P-ethyl] | 26 µM | –
8 | Cc1ccc(N(SC(F)(Cl)Cl)S(=O)(=O)N(C)C)cc1 [Tolylfluanid] | 19.5 µM | –
9 | CN(C)c1ccc(C(=C2C=CC(=[N+](C)C)C=C2)c2ccccc2)cc1 [Malachite green] | 4.25 µM | –
10 | CN(C)CCN(Cc1ccccc1)c1ccccn1 [Tripelennamine citrate] | 12.7 µM | –
11 | CC1(C)CCC[C@]2(C)[C@H]3CC(=O)O[C@]3(C)CC[C@@H]12 [(3aR)-(+)-Sclareolide] | 42 µM | –
12 | CCCCCCCCCCCCCCCCn1cc[n+](C)c1 [1-Hexadecyl-3-methylimidazolium chloride] | 14.1 µM | –
13 | CC(CN(C)C)CN1c2ccccc2CCc2ccccc21 (stereo not drawn) [Trimipramine hydrogen maleate] | 14.5 µM | –
14 | COc1cc2c(cc1OC)C(C(C(=O)N(CCc1ccc(OC)c(OC)c1OC)CCc1ccc(OC)c(OC)c1OC)c1ccccc1)=NCC2 (stereo not drawn) [Pinokalant hydrochloride] | 20.1 µM | –
15 | Cc1[nH]cnc1C[C@H]1CCc2c(C)c3ccccc3n2C1=O [Fabesetron hydrochloride] | 7.01 µM | –
16 | Cc1ccc(O)c(-n2nc3ccccc3n2)c1 [2-(2H-Benzotriazol-2-yl)-4-methylphenol] | 36 µM | –
17 | CCCCCC1Nc2cc(C(F)(F)F)c(S(N)(=O)=O)cc2S(=O)(=O)N1 (stereo not drawn) [Penflutizide] | 23 µM | –
18 | CCOC(=O)c1cn2nc(OP(=S)(OCC)OCC)cc2nc1C [Pyrazophos] | 51.9 µM | –
19 | CCCCOC(=O)C(C)Oc1ccc(Oc2ccc(C(F)(F)F)cn2)cc1 (stereo not drawn) [Fluazifop-butyl] | 23.2 µM | –
20 | CN1CCN(CCC(=O)N2c3ccccc3Sc3ccc(C(F)(F)F)cc32)CC1 [Ftormetazine] | 4.96 µM | –
21 | CCCCCCCCCCCCCC[P+](CCCCCC)(CCCCCC)CCCCCC [Trihexyltetradecylphosphonium hexafluorophosphate] | 0.47 µM | –
22 | O=C(CCCN1CCC(n2c(O)nc3ccccc32)CC1)c1ccc(F)cc1 [Benperidol] | 1.76 µM | –

Row | Compound | IC50 (hERG [2]) | also measured
23 | C#CCN(C)CCCOc1ccc(Cl)cc1Cl [N-Methyl-N-propargyl-3-(2,4-dichlorophenoxy)propylamine hydrochloride] | 8.82 µM | –
24 | COc1cccc(-c2ccc(/C=C\CN3CCCCCC3)cc2Cl)c1 [SR125047] | 1.48 µM | –
25 | CCCCCCCCCCCCn1cc[n+](C)c1 [1-Dodecyl-3-methylimidazolium chloride] | 2.87 µM | –
26 | CCc1ccc2c(c1)C(=O)c1ccccc1C2=O [2-Ethylanthraquinone] | 24.5 µM | –
27 | CCCCCCCCn1sccc1=O [Octhilinone] | 27.6 µM | –
28 | CCCN(CCC)C(=O)Cc1c(-c2ccc(Cl)cc2)nc2ccc(Cl)cn12 [Alpidem] | 20.5 µM | –
29 | C#CCOC(=O)[C@@H](C)Oc1ccc(Oc2ncc(Cl)cc2F)cc1 [Clodinafop-propargyl] | 41 µM | –
30 | C[C@@H]1CN(CCCn2c3ccccc3c3ccccc32)C[C@H](C)N1 [Rimcazole dihydrochloride] | 7.86 µM | –
31 | CC(C)(C)c1ccc(CCC=O)cc1 [3-(4-tert-Butylphenyl)propanal] | 49 µM | –
32 | CCC1=C[C@@H]2CN(C1)Cc1c([nH]c3ccccc13)[C@@](C(=O)OC)(c1cc3c(cc1OC)N(C)[C@H]1[C@@](O)(C(=O)OC)[C@H](OC(C)=O)[C@]4(CC)C=CCN5CC[C@]31[C@@H]54)C2 [Vinorelbine tartrate] | 6.49 µM | –
33 | CCOC(=O)NNc1ccc(N(CC)CC(C)O)nn1 (stereo not drawn) [Cadralazine] | 23.9 µM | –
34 | CN1CCCC(CC2c3ccccc3Sc3ccccc32)C1 (stereo not drawn) [Metixene hydrochloride] | 4.77 µM | –
35 | O=P(Oc1ccccc1)(Oc1ccccc1)Oc1ccccc1 [triphenyl phosphate] | 32.1 µM | –
36 | Cc1cccc(Nc2ccccc2)c1 [3-Methyl-N-phenylaniline] | 52.9 µM | –
37 | COC(=O)C(C)Oc1ccc(Oc2ccc(Cl)cc2Cl)cc1 (racemic) [(+-)-Diclofop-methyl] | 46.2 µM | –
38 | CCN(CC)CCOC(=O)C(c1ccccc1)c1ccccc1 [Adiphenine hydrochloride] | 4.77 µM | –
39 | c1ccc2c(c1)CCc1ccccc1N2 [10,11-Dihydro-5H-dibenz[b,f]azepine] | 19.7 µM | –
40 | COc1ccc(C(c2ccc(OC)cc2)C(Cl)(Cl)Cl)cc1 [Methoxychlor] | 20.5 µM | –
41 | COc1ccc(C(=O)c2ccccc2)c(O)c1 [2-Hydroxy-4-methoxybenzophenone] | 43.6 µM | –
42 | N=C(N/N=C/c1ccc(Cl)cc1)N/N=C/c1ccc(Cl)cc1 [Robenidine] | 1.69 µM | –
43 | CC1(C)CCC(Cc2ccc(Cl)cc2)C1(O)Cn1cncn1 (stereo not drawn) [Metconazole] | 50.9 µM | –
44 | CCCCCN(CCCCC)C(=O)C(CCC(=O)O)NC(=O)c1ccc(Cl)c(Cl)c1 (stereo not drawn) [Lorglumide sodium] | 9.52 µM | –

Row | Compound | IC50 (hERG [2]) | also measured
45 | CCOC(=O)C(Cl)Cc1cc(-n2nc(C)n(C(F)F)c2=O)c(F)cc1Cl (stereo not drawn) [Carfentrazone-ethyl] | 28.6 µM | –
46 | Cc1cc(C(C)(C)C)c(O)c(C(C)(C)C)c1 [Butylated hydroxytoluene] | 20.7 µM | –
47 | CC[N+](CC)(CC(=O)Nc1c(C)cccc1C)Cc1ccccc1 [Denatonium saccharide] | 27.1 µM | –
48 | COC(=O)[C@H]1[C@H]2C[C@@H]3c4[nH]c5cc(OC)ccc5c4CCN3C[C@H]2C[C@@H](OC(=O)COc2ccc(OC)cc2)[C@@H]1OC [Mefeserpine] | 0.786 µM | –
49 | CCN1CCCC1CNC(=O)c1cc(S(N)(=O)=O)ccc1OC (stereo not drawn) [Sulpiride] | 34.7 µM | –
50 | CC(Cc1ccc(C(C)(C)C)cc1)CN1C[C@@H](C)O[C@@H](C)C1 (stereo partly drawn) [(2R,6S)-Fenpropimorph] | 15.5 µM | –
51 | CCCCCOC(=O)COc1cc(N2C(=O)C3=C(CCCC3)C2=O)c(F)cc1Cl [Flumiclorac-pentyl] | 16.4 µM | –
52 | COC(=O)C(C)Oc1ccc(Oc2ncc(C(F)(F)F)cc2Cl)cc1 (stereo not drawn) [Haloxyfop-methyl] | 35.1 µM | –
53 | CCOC(=O)C1=NOC(c2ccccc2)(c2ccccc2)C1 [Ethyl 5,5-diphenyl-2-isoxazoline-3-carboxylate] | 36.7 µM | –
54 | CCC(C)c1cc([N+](=O)[O-])cc([N+](=O)[O-])c1OC(=O)C=C(C)C (stereo not drawn) [Binapacryl] | 30.9 µM | –
55 | CCC(C)(NC(=O)c1cc(Cl)c(C)c(Cl)c1)C(=O)CCl (stereo not drawn) [Zoxamide] | 39.1 µM | –
56 | CC(C)CC(C)(c1ccc(O)cc1)c1ccc(O)cc1 [4,4'-(4-Methylpentane-2,2-diyl)diphenol] | 28.6 µM | –
57 | CCCCCCCCCCCCn1cc[n+](C)c1 [1-Dodecyl-3-methylimidazolium trifluoromethanesulfonate] | 4.61 µM | –
58 | CN(C)[C@@H](CCOc1cccc2ccccc12)c1ccccc1 [Dapoxetine] | 7.56 µM | –
59 | COc1ccc(C(=CC(=O)N2CCOCC2)c2ccc(Cl)cc2)cc1OC [Dimethomorph] | 11.8 µM | –
60 | CC(Cc1cccc(C(F)(F)F)c1)NCCOC(=O)c1ccccc1 (stereo not drawn) [Benfluorex hydrochloride] | 9.52 µM | –
61 | CN(C)CCCN1c2ccccc2Sc2ccccc21 [Promazine hydrochloride] | 9.52 µM | –
62 | CCN(CC)CCSC(=O)C(c1ccccc1)c1ccccc1 [Thiphenamil] | 3.01 µM | –
63 | c1ccc2c(c1)Oc1ccccc1S2 [Phenoxathiin] | 24.5 µM | –
64 | C[C@@H]1CC[C@H]2C(C)(C)[C@H]3C[C@@]12CC[C@@]3(C)O [(+)-Cedrol] | 43.6 µM | –
